Experimental data from patent publication US7598382B2, “Aryl substituted imidazoquinolines” (Coley Pharmaceutical Group, Inc., priority 2002, dated 2009).

Row | Compound | melting point [°C]
1 | CCCCc1nc2c(N)nc3cc(-c4cccnc4)ccc3c2n1CCNC(=O)NC(C)C [Example 392, N-{2-[4-Amino-2-butyl-7-(pyridin-3-yl)-1H-imidazo[4,5-c]quinolin-1-yl]ethyl}-N′-(1-methylethyl)urea] | 240 to 241
2 | CCCCc1nc2c(N)nc3cc(-c4cccnc4)ccc3c2n1CCN1CCCS1(=O)=O [Example 393, 1-[2-(1,1-Dioxo-1-isothiazolidin-2-yl)ethyl]-2-butyl-7-(pyridin-3-yl)-1H-imidazo[4,5-c]quinolin-4-amine] | 290 to 292
3 | CCc1nc2c(N)nc3cc(-c4cccnc4)ccc3c2n1CC1CCN(C(=O)OC(C)(C)C)CC1 [Example 404, tert-Butyl 4-{[4-amino-2-ethyl-7-(pyridin-3-yl)-1H-imidazo[4,5-c]quinolin-1-yl]methyl}piperidine-1-carboxylate] | 229 to 231
4 | CCCc1nc2c(N)nc3cc(-c4cccnc4)ccc3c2n1CC1CCN(C(=O)OC(C)(C)C)CC1 [Example 409, tert-Butyl 4-{[4-amino-2-propyl-7-(pyridin-3-yl)-1H-imidazo[4,5-c]quinolin-1-yl]methyl}piperidine-1-carboxylate] | 209 to 211
5 | CCCc1nc2c(N)nc3cc(-c4cccnc4)ccc3c2n1CC1CCN(C(=O)C(C)C)CC1 [Example 412, 1-{4-[4-Amino-2-propyl-7-(pyridin-3-yl)-1H-imidazo[4,5-c]quinolin-1-ylmethyl]piperidin-1-yl}-2-methylpropan-1-one] | 248 to 249
6 | CCOCc1nc2c(N)nc3cc(-c4cccnc4)ccc3c2n1CCN1CCNCC1 [Example 414, 2-Ethoxymethyl-1-(2-piperazin-1-ylethyl)-7-(pyridin-3-yl)-1H-imidazo[4,5-c]quinolin-4-amine] | 208 to 211
7 | CC(C)Cn1cnc2c(N)nc3ccc(CCc4ccncc4)cc3c21 [Example 425, 1-(2-Methylpropyl)-8-(2-pyridin-4-ylethyl)-1H-imidazo[4,5-c]quinolin-4-amine] | 221 to 224
8 | CC(C)Cn1cnc2c(N)nc3ccc(CCCCc4ccccc4)cc3c21 [Example 426, 1-(2-Methylpropyl)-8-(4-phenylbutyl)-1H-imidazo[4,5-c]quinolin-4-amine] | 176 to 177
9 | CC(C)Cn1cnc2c(N)nc3cc(C=Cc4ccccc4)ccc3c21 [Example 427, 1-(2-Methylpropyl)-7-styryl-1H-imidazo[4,5-c]quinolin-4-amine] | 257 to 258
10 | CC(C)Cn1cnc2c(N)nc3cc(-c4cccnc4)ccc3c21 [Example 428, 1-(2-Methylpropyl)-7-(pyridin-3-yl)-1H-imidazo[4,5-c]quinolin-4-amine] | 125
11 | CC(C)Cn1cnc2c(N)nc3cc(-c4cncc(CO)c4)ccc3c21 [Example 429, 1-(2-Methylpropyl)-7-(5-hydroxymethylpyridin-3-yl)-1H-imidazo[4,5-c]quinolin-4-amine] | 210 to 211
12 | CC(C)Cn1cnc2c(N)nc3cc(CCc4ccccc4)ccc3c21 [Example 430, 1-(2-Methylpropyl)-7-phenethyl-1H-imidazo[4,5-c]quinolin-4-amine] | 172 to 173
13 | CC(C)(O)Cn1cnc2c(N)nc3cc(Cc4ccccc4)ccc3c21 [Example 431, 1-(4-Amino-7-benzyl-1H-imidazo[4,5-c]quinolin-1-yl)-2-methylpropan-2-ol] | 228 to 229
14 | CC(C)(O)Cn1cnc2c(N)nc3ccc(Cc4ccccc4)cc3c21 [Example 434, 1-(4-Amino-8-benzyl-1H-imidazo[4,5-c]quinolin-1-yl)-2-methylpropan-2-ol] | 256 to 257
15 | CCCc1nc2c(N)nc3ccc(Cc4ccccc4)cc3c2n1CC(C)(C)O [Example 435, 1-(4-Amino-8-benzyl-2-propyl-1H-imidazo[4,5-c]quinolin-1-yl)-2-methylpropan-2-ol] | 191 to 192
16 | CCOCc1nc2c(N)nc3ccc(Cc4ccccc4)cc3c2n1CC(C)(C)O [Example 436, 1-(4-Amino-8-benzyl-2-ethoxymethyl-1H-imidazo[4,5-c]quinolin-1-yl)-2-methylpropan-2-ol] | 209 to 210

Now from value to compound:

Row | melting point [°C] | Compound
17 | 228 to 230 | CCCCc1nc2c(N)nc3cc(-c4cccnc4)ccc3c2n1CCNC(=O)C(C)C [Example 390, N-{2-[4-Amino-2-butyl-7-(pyridin-3-yl)-1H-imidazo[4,5-c]quinolin-1-yl]ethyl}-2-methylpropanamide]
18 | 173 to 175 | CCOc1ccccc1-c1ccc2c(c1)nc(N)c1nc(COC)n(CC(C)(C)O)c12 [Example 394, 1-[4-Amino-7-(2-ethoxyphenyl)-2-methoxymethyl-1H-imidazo[4,5-c]quinolin-1-yl]-2-methylpropan-2-ol]
19 | 220 to 220.5 | COCc1nc2c(N)nc3cc(-c4cncnc4)ccc3c2n1CC(C)(C)O [Example 395, 1-[4-Amino-2-methoxymethyl-7-(pyrimidin-5-yl)-1H-imidazo[4,5-c]quinolin-1-yl]-2-methylpropan-2-ol]
20 | 225 to 225.5 | COCc1nc2c(N)nc3cc(-c4cccnc4)ccc3c2n1CC(C)(C)O [Example 396, 1-[4-Amino-2-methoxymethyl-7-(pyridin-3-yl)-1H-imidazo[4,5-c]quinolin-1-yl]-2-methylpropan-2-ol]
21 | 241 to 242 | COCc1nc2c(N)nc3cc(-c4cnc(OC)nc4)ccc3c2n1CC(C)(C)O [Example 397, 1-[4-Amino-2-methoxymethyl-7-(2-methoxypyrimidin-5-yl)-1H-imidazo[4,5-c]quinolin-1-yl]-2-methylpropan-2-ol]
22 | 190 to 190.5 | COCc1nc2c(N)nc3cc(-c4ccc(OC)nc4)ccc3c2n1CC(C)(C)O [Example 398, 1-[4-Amino-2-methoxymethyl-7-(6-methoxypyridin-3-yl)-1H-imidazo[4,5-c]quinolin-1-yl]-2-methylpropan-2-ol]
23 | 220.5 to 222 | COCc1nc2c(N)nc3cc(-c4cnccc4OC)ccc3c2n1CC(C)(C)O [Example 399, 1-[4-Amino-2-methoxymethyl-7-(4-methoxypyridin-3-yl)-1H-imidazo[4,5-c]quinolin-1-yl]-2-methylpropan-2-ol]
24 | 234 to 236 | COCc1nc2c(N)nc3cc(-c4cncc(OC)c4)ccc3c2n1CC(C)(C)O [Example 400, 1-[4-Amino-2-methoxymethyl-7-(5-methoxypyridin-3-yl)-1H-imidazo[4,5-c]quinolin-1-yl]-2-methylpropan-2-ol]
25 | 238.5 to 241 | CCCc1nc2c(N)nc3cc(-c4cccnc4)ccc3c2n1CC(C)(C)O [Example 418, 1-[4-Amino-2-propyl-7-(pyridin-3-yl)-1H-imidazo[4,5-c]quinolin-1-yl]-2-methylpropan-2-ol]
26 | 225 to 226 | CCCc1nc2c(N)nc3cc(-c4cncc(CO)c4)ccc3c2n1CC(C)(C)O [Example 420, 1-[4-Amino-7-(5-hydroxymethylpyridin-3-yl)-2-propyl-1H-imidazo[4,5-c]quinolin-1-yl]-2-methylpropan-2-ol]
27 | 146 to 148 | CCOCc1nc2c(N)nc3cc(-c4cccnc4)ccc3c2n1CC1CCCCC1 [Example 438, 1-Cyclohexylmethyl-2-ethoxymethyl-7-(pyridin-3-yl)-1H-imidazo[4,5-c]quinolin-4-amine]
